Data from patent US7122530B2, “24-hydroxyvitamin D, analogs and uses thereof” (Genzyme Corporation, priority 1998, dated 2006).
Where two headings read alike, the source gives them in different places.

What was measured:
[1] = system: dermatitis (contact and ectopic) patients; test: Double blind study of oral 24(S)-OH-preD2 formulation in dermatitis (contact and ectopic); format: in vivo, human; settings: daily oral 10.0 to 20.0 μg, four to six weeks
Procedure: An oral dosage formulation containing 24(S)-OH-preD2 is evaluated in a double blind study for therapeutic efficacy of the formulation in the treatment of dermatitis (contact and ectopic). The formulation evaluated contains 10.0 to 20.0 μg of 24(S)-OH-preD2. […] The patients are treated in an outpatient clinic and are divided into an experimental and control population. They are instructed to take the medication once a day, in the morning before breakfast.
In each patient (experimental and control) an area of the skin containing a lesion is selected which is ordinarily covered by clothing, and the patients are instructed not to expose the skin area selected for study to sunlight. The area of the lesion is estimated and recorded, and the lesion(s) is photographed. Relevant details of the photographic procedure are recorded so as to be reproduced when the lesions are next photographed (distance, aperture, angle, background, etc.).
Evaluations of erythema, scaling, and thickness are conducted at weekly intervals by a physician. The final evaluation is usually carried out at the end of four to six weeks of treatment.

[2] = Production of 1α,24(S)-(OH)2-25-ene-D2 in osteoporotic women (blood metabolite, HPLC and radioreceptor assay); format: in vivo, human; settings: 25 μg/day for one week; one day following the last dose
Procedure: Human female subjects, who have been diagnosed with osteoporosis, are given daily doses of 25 μg/day 24-OH-25-ene-D2 for one week. Blood is collected and analyzed for the metabolite 1α,24(S)-(OH)2-25-ene-D2. Lipid is extracted from the blood, and the metabolite is purified by HPLC using standard methods and quantified with the radioreceptor assay produced by Incstar (Stillwater, Minn.).

[3] = system: patients with advanced androgen-independent prostate cancer; test: Study of Example 10 repeated with 24-OH-preD2 in prostate cancer; format: in vivo, human; settings: for progression of metastatic disease (CAT scans, X-rays and bone scans): phase two, after two years
Excerpt: Patients with advanced androgen-independent prostate cancer participate in an open-label study of 24-(OH)-D2. […] On admission to the study, patients begin a course of therapy with oral 24-(OH)-D2 lasting 26 weeks, while discontinuing any previous use of calcium supplements, vitamin D supplements, and vitamin D hormone replacement therapies. During treatment, the patients are monitored at regular intervals for: (1) hypercalcemia, hyperphosphatemia, hypercalciuria, hyperphosphaturia and other toxicity; (2) evidence of changes in the progression of metastatic disease; and (3) compliance with the prescribed test drug dosage.
The study is conducted in two phases. During the first phase, the maximal tolerated dosage (MTD) of daily oral 24-(OH)D2 is determined by administering progressively higher dosages to successive groups of patients. All doses are administered in the morning before breakfast. The first group of patients is treated with 25.0 μg of 24-(OH)D2. Subsequent groups of patients are treated with 50.0, 75.0 and 100.0 μg/day. Dosing is continued uninterrupted for the duration of the study unless serum calcium exceeds 11.6 mg/dL, or other toxicity of grade 3 or 4 is observed, in which case dosing is held in abeyance until resolution of the observed toxic effect(s) and then resumed at a level which has been decreased by 10.0 μg.
The study of Example 10 is repeated for the vitamin D compound, 24-OH-preD2.

[4] = system: postmenopausal osteoporotic outpatients; test: Clinical study of osteoporosis treatment with 24-OH-preD2; format: in vivo, human; settings: oral, above 5.0 μg/day, 24 months
Procedure: A clinical study is conducted with postmenopausal osteoporotic outpatients having ages between 55 and 75 years. The study involves up to 120 patients randomly divided into three treatment groups, and continues for 24 months. Two of the treatment groups receive constant dosages of orally administered 24-OH-preD2 (u.i.d.; two different dose levels above 5.0 μg/day) and the other group receives a matching placebo. All patients maintain a normal intake of dietary calcium (500 to 800 mg/day) and refrain from using calcium supplements. Efficacy is evaluated by pretreatment and posttreatment comparisons of the patient groups with regard to (a) total body, radial, femoral, and/or spinal bone mineral density as determined by x-ray absorptiometry (DEXA), (b) bone biopsies of the iliac crest, and (c) determinations of serum osteocalcin. Safety is evaluated by comparisons of urinary hydroxyproline excretion, serum and urine calcium levels, creatinine clearance, blood urea nitrogen, and other routine determinations.

[5] = system: patients with primary hyperparathyroidism; test: Clinical trial of 24-OH-preD2 for primary hyperparathyroidism; format: in vivo, human
Procedure: Twenty renal patients are enrolled in a clinical trial to study primary hyperparathyroidism. The patients show baseline iPTH levels greater than 200 pg/mL. An initial dose of 24-OH-preD2 (2–4 μg/day) is increased (maximum, 10 μg/day) or decreased as necessary to attain and maintain iPTH in the normal range. After 11–12 weeks of treatment, the iPTH levels of the patients decrease to below 100 pg/mL, and in many cases to below 60 pg/mL.

[6] = system: subjects with secondary hyperparathyroidism; test: Twelve-month placebo-controlled trial of 24-OH-preD2 in elderly subjects with secondary hyperparathyroidism; format: in vivo, human; settings: 15 μg/day, twelve months
Procedure: (§1) A twelve-month double-blind placebo-controlled clinical trial is conducted with forty subjects with secondary hyperparathyroidism. The selected subjects have ages between 60 and 100 years and have a history of secondary hyperparathyroidism. Subjects also have femoral neck osteopenia (femoral neck bone mineral density of ≦0.70 g/cm^2).
(§2) All subjects enter a six-week control period after which the subjects are randomized into two treatment groups: one group receives a constant dosage of 15 μg/day 24-OH-preD2, and the other group receives a matching placebo. Both groups maintain a normal intake of dietary calcium without the use of calcium supplements. Efficacy is evaluated by pre- and post-treatment comparisons of the two patient groups with regard to (a) intact PTH (iPTH); (b) radial, femoral and spinal bone mineral density; and (c) bone-specific urine markers (e.g., pyridinium crosslinks). Safety is evaluated by (a) serium calcium and phosphorus, and (b) urine calcium and phosphorus.

[7] = Blood level of 1α,24-(OH)2-D2 in vitamin D-deficient rats given 24-OH-previtamin D2; format: in vivo; settings: 0.25 μg/kg oral; four hours after administration
Procedure: Male weanling rats are fed a diet deficient in vitamin D and with normal calcium (0.47%). After a period of four weeks has elapsed, the rats are divided into two groups, and orally administered either 24-OH-previtamin D2 (0.25 μg/kg) in a vehicle such as lactose or the vehicle (control) alone.

postmenopausal women = settings: cited from earlier work
[8] = system: patients (Japan; senile osteoporosis); settings: cited from earlier work
[9] = system: postmenopausal osteoporotic out-patients; test: Clinical study of prevention of bone mass loss with 24(S)-OH-25-ene-D2; format: in vivo, human; settings: at or above 5.0 μg/day, 24 to 36 months
Procedure: A clinical study is conducted with postmenopausal osteoporotic out-patients having ages between 55 and 75 years. The study involves up to 120 patients randomly divided into three treatment groups and continues for 24 to 36 months. Two of the treatment groups receive constant dosages of 24(S)-OH-25-ene-D2 (u.i.d.; two different dose levels at or above 5.0 μg/day) and the other group receives a matching placebo. All patients maintain a normal intake of dietary calcium (500 to 800 mg/day) and refrain from using calcium supplements. Efficacy is evaluated by pre- and post-treatment comparisons of the patient groups with regard to (a) total body calcium retention, and (b) radial and spinal bone mineral density as determined by dual-photon absorptiometry (DPA) or dual-energy x-ray absorptiometry (DEXA). Safety is evaluated by comparisons of urinary hydroxyproline excretion, serum and urine calcium levels, creatinine clearance, blood urea nitrogen, and other routine determinations.

[10] = system: subjects with secondary hyperparathyroidism; test: Twelve-month placebo-controlled trial of 24-(OH)-D4 in elderly subjects with secondary hyperparathyroidism; format: in vivo, human; settings: 15 μg/day, twelve months
Procedure: as §1
as §2, with “24-(OH)-D4,” for “24-OH-preD2,”

[11] = In vivo generation of 1α,24-(OH)2-D2 in vitamin D-deficient rats (plasma metabolites by HPLC)
Procedure: 24-OH-D2 was administered (either oral or intraperitoneal supplementation) to vitamin D-deficient rats. Lipid extracts of the plasma were prepared and the metabolites purified by the method of Horst et al. (Horst, R. L., Koszewski, N. J. and Reinhardt, T. A., Biochem., 29:578–82 (1990) and incorporated herein by reference) described below for synthesizing standard biological 1α,24-(OH)2D2.

24(S)-hydroxyprevitamin D2 [24(S)-OH-preD2]
degree of erythema, scaling, and thickness versus control patients [1]: significantly reduces

24-hydroxy-25-ene-vitamin D2 [24-OH-25-ene-D2]
level of 1α,24(S)-(OH)2-25-ene-D2 in the blood [2]: significant level

24-hydroxyprevitamin D2 [24-OH-preD2]
progression of metastatic disease (CAT scans, X-rays and bone scans) ([3]; higher dosage): stable disease and partial or complete remission in many patients | progression of metastatic disease (CAT scans, X-rays and bone scans) ([3]; lower dosage): stable disease or partial remission in many patients | bone pain associated with metastatic disease ([3]; treated with the MTD for at least six months): significantly diminished | bone biopsies (bone formation) [4]: stimulates normal bone formation | incidence of hypercalcemia or hypercalciuria, or any other metabolic disturbance [4]: insignificant incidence | serum osteocalcin [4]: significant elevations | total body, radial, femoral, and/or spinal bone densities relative to placebo [4]: significantly higher | iPTH levels of the patients ([5]; after 11–12 weeks, baseline greater than 200 pg/mL, 2–4 μg/day, titrated): below 100 pg/mL | iPTH levels, in many cases ([5]; after 11–12 weeks, in many cases): below 60 pg/mL | episodes of hypercalcemia ([5]; during the study): few episodes of hypercalcemia | bone specific urine markers [6]: significantly decreases | incidence of hypercalcemia [6]: insignificant incidence | intact PTH (iPTH) [6]: significantly decreases | radial and spinal bone densities relative to baseline values [6]: stable | serum calcium levels [6]: normal serum calcium levels | blood level of 1α,24-(OH)2-D2 versus control animals [7]: significantly elevated

C=C1/C(=C\C=C2/CCC[C@]3(C)[C@@H]([C@H](C)CCCC(C)(C)O)CC[C@@H]23)C[C@@H](O)C[C@@H]1O [1α,25-dihydroxyvitamin D3]
intestinal calcium absorption and calcium balance (postmenopausal women; 0.5 μg/day, postmenopausal women): improved | effects on bone mass or mineral content (postmenopausal women; dosage levels below 0.5 μg/day): no effects are observed

C=C1/C(=C\C=C2/CCC[C@]3(C)[C@@H]([C@H](C)CCCC(C)C)CC[C@@H]23)C[C@@H](O)C[C@@H]1O [1α-hydroxyvitamin D3]
efficacy ([8]; 1 μg/day, Japan, low calcium intake): efficacy is found | patients in whom toxicity occurs ([8]; 1 μg/day): approximately 20% | patients in whom toxicity occurs ([8]; 2 μg/day): approximately 67%

C=C1CC[C@H](O)C/C1=C/C=C1\CCC[C@]2(C)[C@@H]([C@H](C)/C=C/[C@](C)(O)C(=C)C)CC[C@@H]12 [24(S)-OH-25-ene-D2]
incidence of hypercalcemia or hypercalciuria, or any other metabolic disturbance [9]: insignificant incidence | total body calcium, and radial and spinal bone densities relative to placebo [9]: significantly higher

C=C1CC[C@H](O)C/C1=C/C=C1\CCC[C@]2(C)[C@@H]([C@H](C)CCC(C)(O)C(C)C)CC[C@@H]12 (some centres unmarked) [24-(OH)-D4, 24-hydroxyvitamin D4]
bone specific urine markers [10]: significantly decreases | incidence of hypercalcemia [10]: insignificant incidence | intact PTH (iPTH) [10]: significantly decreases | radial and spinal bone densities relative to baseline values [10]: stable | serum calcium levels [10]: normal serum calcium levels

C=C1CC[C@H](O)C/C1=C/C=C1\CCC[C@]2(C)[C@@H]([C@H](C)/C=C/[C@H](C)C(C)C)CC[C@@H]12 [vitamin D2]
metabolite isolated from plasma lipid extracts versus standard 1α,24-(OH)2D2 ([11]; vitamin D-deficient rats, oral or intraperitoneal supplementation, HPLC): co-migrated on HPLC with the standard 1α,24-(OH)2D2

C=C1CC[C@H](O)C/C1=C/C=C1\CCC[C@]2(C)[C@@H]([C@H](C)CCCC(C)C)CC[C@@H]12 [vitamin D3]
detectable 24-OH-D3 in plasma ([11]; comparable vitamin D-deficient rats): no detectable 24-OH-D3
